Read-outs that look alike come from different tables or passages of the source.
Assays:
reserpine-induced ptosis = experiment: Reserpine-induced ptosis in the rat; assay type: in vivo, male rats of the CF1 strain; conditions: 10 mg/kg oral; reserpine 5 mg/kg i.p.; score scale 0-4, mean to 6th hour vs controls
Procedure: (§2) The thymoanaleptic properties of the compounds of the invention were determined by means of reserpine-induced ptosis and hypothermia in the rat.
An intraperitoneal dose of 5 mg/kg of reserpine was administered to batches of 5 male rats of the CF1 strain weighing an average of 300 g.
Thirty minutes later a dose of the compound to be studied was given by oral route and the inhibitory effect of the reserpine was noted every hour up to the sixth hour. Ptosis was evaluated for each eye in accordance with the following scale:
4 : eyelids completely closed.
The difference between these two averages represents the average decrease of the ptosis in the treated animals as compared to the controls.

[1] = system: aggressivity of isolated mice; experiment: Aggressivity of isolated mice; assay type: in vivo, male mouse; conditions: Mus musculus, read-out: ED50, inhibition of aggressivity
Procedure: If a male mouse is kept alone in a cage for 3 weeks to 1 month, it will spontanesouly attack any other animal of the same species which is placed in the same cage. If the other animal has also been isolated under the same conditions a series of fights takes place.
Mice were isolated for the period of time required to render them spontaneously aggressive. Couples were then put together and note was taken of the number of fights which took place over a period of 3 minutes. Each batch was composed of four pairs of mice.
The animals of each batch were then treated by intragastric route with the compound to be studied which was administered in such a way that each batch received a higher dose than the preceding batch. […]
The results were expressed in the percentage of decrease in the number of fights between the animals after treatment in comparison with the percentage obtained before treatment which represents the percentage of inhibition of aggressivity.

neuromuscular functions = experiment: Rotarod test of BOISSIER / neuromuscular functions; assay type: in vivo, mouse; conditions: 30 minutes after oral administration, mouse
[2] = system: stereotypies induced by amphetamine; experiment: Potentiation of the stereotypies induced by amphetamine; assay type: in vivo, rats; conditions: 10 mg/kg oral; amphetamine 10 mg/kg i.p.; every 30 min for 150 min
Procedure: It is commonly admitted that amphetamine induces stereotypies by stimulating the dopaminergic receptors and inhibiting the re-uptake of dopamine into the neuron.
The thymoanaleptics potentiate these stereotypies.
Thirty minutes later, a dose of 10 mg/kg of the compound to be tested was given by oral route. Note was taken of the intensity of the stereotypies every 30 minutes for 150 minutes in accordance with the following scale which indicates the behaviour of the animal.
0 : the rat is motionless and asleep
1 : the rat is motionless and awake
3 : the rat stands on its hind paws and sniffs the lid of its cage in a stereotyped manner.
4 : the rat licks the walls of its cage in a stereotyped manner
5 : the rat bites the bars of its cage or sniffs the shavings of its litter in a stereotyped manner
6 : the rat chews the shavings in a stereotyped manner
The average of the 5 results obtained for each batch was calculated and compared with the average obtained with the control animals.
The difference between these averages represents the mean increase of the steroetypies of the treated animals in comparison with the controls.

[3] = system: contractile reaction of the nictitating membrane; experiment: Ganglioplegic activity on the anesthetized cat (nictitating membrane); assay type: in vivo; conditions: intravenous 0.005, 0.1 and 1 mg/kg
Procedure: The tonus of the nictitating membrane was first noted after which the contractile reaction of the membrane to electric stimulation of the preganglionic fibre of the cervical sympathetic nerve was tested.

toxicity of yohimbine = experiment: Potentiation of the toxicity of yohimbine (test of QUINTON); assay type: in vivo, male mice; conditions: 20 mg/kg, same conditions (yohimbine hydrochloride 25 mg/kg i.p.; 24 hours)
Procedure: Yohimbine is a substance which provokes an increase in the serotonine level in the brain or a decrease in norepinephrine according to the author.
For this purpose, the test of QUINTON was used which is described in Brit. J. Pharmacol. 21, 51 (1963). […] […] The percentage of mortality was noted after 24 hours.
Table III hereunder expresses the percentage of potentiation of the toxicity due to yohimbine in comparison with the controls.
The percentage in question was determined 24 hours after the administration of yohimbine.

[4] = Toxicity, method of KARBER and BEHRENS, mice; conditions: mouse, in vivo, po
Procedure: (§1) Finally, tests of toxicity were performed with compounds of the invention following the method of KARBER and BEHRENS.

[5] = system: cholinergic effects provoked by tremorine; experiment: Cholinolytic properties: action with respect to tremorine; assay type: in vivo, male mice of the OF1 strain; conditions: 5 mg/kg oral; tremorine 10 mg/kg; difference vs controls
Procedure: When injected into mice, tremorine and its metabolite, oxotremorine, produce central cholinergic effects, i.e. normal and provoked tremor as well as peripheral cholinergic effects i.e. weeping, sweating diarrhoea and salivation.
Male mice of the OF1 strain weighing 22 g, were divided into batches of 10. Each batch with the exception of the control animals, received, by oral route, a dose of the compound to be tested.
Thirty minutes later, 10 mg/kg of tremorine were administered to all the batches and thirty minutes after the injection of tremorine note was taken of the cholinergic effects on each animal in accordance with the following scale: […]

[6] = system: reserpine-induced hypothermia; experiment: Reserpine-induced hypothermia in the rat; assay type: in vivo, male rats CF1; conditions: 10 mg/kg oral; reserpine 5 mg/kg i.p.; mean to 6th hour vs controls
Procedure: as §2
An intraperitoneal dose of 5 mg/kg of reserpine was administered to batches of 5 male rats CF1 weighing an average of 300 g. Thirty minutes later, the rectal temperature was determined and then a dose of the compound to be tested was given by oral route, except to the control animals. The rectal temperature of all the animals including the controls was taken every hour up to the 6th hour.
The difference between these two averages enabled an estimation to be made regarding the antagonistic effect of the compounds of the invention on the hypothermia induced by reserpine.

spontaneous motricity = experiment: Spontaneous motricity in the mouse; assay type: in vivo
Procedure: Tests were also performed with a view to determining whether the compounds of the invention modify spontaneous motricity.

[7] = system: aggressivity of killer rats; experiment: Aggressivity of killer rats; assay type: in vivo, male rats
Source text: If, under certain conditions, male rats are kept alone in individual cages for several weeks, the become spontaneously aggressive towards any mouse, which they kill as soon as it is placed in the same cage. Mice were introduced one after another into cages containing an isolated rat and a selection was made of the rats which immediately killed three mice. In this way batches of 6 to 8 rats were constituted. The rats were then given the compound to be studied by intraperitoneal route in such a way that each batch received a higher dose than the preceding batch. […] Table V which follows contains the results obtained 30 minutes after administration of the compound to be studied.

[8] = Toxicity, method of KARBER and BEHRENS, rats; conditions: rat, in vivo
Procedure: as §1

## CC(Oc1cccc2ccccc12)C(N)=NO (stereo not drawn) [Compound 1, 2-(1-Naphthyloxy)-propionamidoxime]
reserpine-induced ptosis
  Average decrease of Ptosis: 1.7
[1]; po, 1.5 h, intragastric route, 90 minutes after administration
  ED50: 0.42 mg/kg
[1]; oral route
  ED50: 0.63 mg/kg
Neuromuscular functions
  neurotoxic dose 50 (NTD 50) relative to ED50 (isolated mouse): sufficiently far removed from the ED50
[2]
  Average increase of the stereotypies: 1
[3]
  intensity of the contractions of the nictitating membrane (ganglioplegic effect): did not modify the intensity of the contractions of the membrane
Toxicity of yohimbine
  Potentiation of the toxicity of yohimbine: 50%
[4]
  LD50 at 24 h: 380 mg/kg
[5]
  Central response tremor: Normal: 0
  Central response tremor: Provoked: 0
  Peripheral cholinergic response: Salivat.: 0
  Peripheral cholinergic response: Sweating: 0
  Peripheral cholinergic response: Weeping: 0
[6]
  Average inhibition of hypothermia (positive °C): 0.7 °C
Spontaneous motricity; 3 mg/kg intragastric, mouse
  effect on curiosity of the animal: without, however modifying the curiosity of the animal
Spontaneous motricity; 3 mg/kg intragastric, mouse, 30 minutes after administration
  reduction of spontaneous motricity: 50%
Spontaneous motricity; conclusion from ratio of doses
  sedation at doses active against aggressivity: not sedative at the doses which are active against aggressivity
[7]; Rattus norvegicus, ip, 0.5 h, 3 mg/kg i.p., 30 minutes after administration
  inhibition in vivo at 3 mg/kg: 100%
[7]; conclusion from Table V
  antiaggressive properties: powerful antiaggressive properties
[8]; ip
  LD50 at 24 h: 50 mg/kg
[8]; po
  LD50 at 24 h: 108 mg/kg
